Some test systems named below: MALME-3M melanoma; HL-60(TB) leukemia; TK-10 renal; OVCAR-3 ovarian; SR leukemia; SK-MEL-28 melanoma; NCI-H522 lung; NCI-H23 lung; NCI/ADR-RES ovarian; HCC-2998 colon.
What all share (test): NCI anticancer screen, dose series, 48 h

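Grown in 96-well plates, cells were treated for 48 hours with each compound at five concentrations. Insufficient inhibition: endpoint recorded as highest concentration tested. GI50 = concentration required for 50% inhibition of growth. The concentration for full growth arrest is given as TGI.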 Bounds are passed on as bounds.

With `CC1OC(OC2C(O)CC(OC3C(O)CC(OC4CCC5(C)C(CCC6C5CC(O)C5(C)C(C7=CC(=O)OC7)CCC65O)C4)OC3C)OC2C)CC(O)C1O` (stereo not given), the GI50 in the assay on MALME-3M melanoma was 0.0373 µM; in the assay on HL-60(TB) leukemia it was 0.0253 µM; in the assay with TK-10 renal, 0.0295 µM; with OVCAR-3 ovarian, 0.033 µM; with SR leukemia, 0.0244 µM; in the assay on SK-MEL-28 melanoma, 0.152 µM. Further, the GI50 is 0.0225 µM with NCI-H522 lung, 0.0235 µM in the assay with NCI-H23 lung, 0.0385 µM in the assay with NCI/ADR-RES ovarian and 0.146 µM in the assay on HCC-2998 colon. In addition, the TGI with MALME-3M melanoma is 0.16 µM; in the assay with HL-60(TB) leukemia, 0.0564 µM; in the assay with TK-10 renal it was 0.087 µM; with OVCAR-3 ovarian it was 0.113 µM; with SR leukemia, 0.0897 µM; in the assay on SK-MEL-28 melanoma, 0.302 µM. Also, the TGI in the assay on NCI-H522 lung was 0.0639 µM; in the assay on NCI-H23 lung, 0.0662 µM; with NCI/ADR-RES ovarian, 0.145 µM; in the assay on HCC-2998 colon it was 0.451 µM.
For `COC(=O)c1cncc(/C=C/c2c(C)cc(O)cc2C)c1`, the GI50 was 11.5 µM in the assay on MALME-3M melanoma; 2.25 µM in the assay with HL-60(TB) leukemia; above 25 µM with TK-10 renal; 10.1 µM with OVCAR-3 ovarian; 2.67 µM in the assay with SR leukemia; above 12.7 µM in the assay on SK-MEL-28 melanoma. The GI50 was 5.67 µM in the assay with NCI-H522 lung, 10.5 µM in the assay on NCI-H23 lung, 7.3 µM in the assay with NCI/ADR-RES ovarian and 13.3 µM with HCC-2998 colon. The TGI was above 25 µM with MALME-3M melanoma; 5.96 µM with HL-60(TB) leukemia; above 25 µM in the assay with TK-10 renal; above 21.1 µM in the assay with OVCAR-3 ovarian; above 25 µM in the assay on SR leukemia; 24.8 µM in the assay with SK-MEL-28 melanoma. Moreover, the TGI is 17.1 µM with NCI-H522 lung, above 25 µM in the assay on NCI-H23 lung, above 25 µM in the assay on NCI/ADR-RES ovarian and above 25 µM with HCC-2998 colon.
For the molecule `OC(C#Cc1ccccc1)(c1ccccc1)c1ccccc1`, the TGI in the assay on MALME-3M melanoma is 60.2 µM; in the assay with HL-60(TB) leukemia, above 100 µM; in the assay on TK-10 renal, 77.4 µM; in the assay on OVCAR-3 ovarian it was 85.3 µM; in the assay with SR leukemia, above 100 µM; in the assay with SK-MEL-28 melanoma, above 100 µM. The TGI in the assay on NCI-H522 lung, with NCI-H23 lung, with NCI/ADR-RES ovarian and with HCC-2998 colon was above 100 µM throughout.
Take `O=C(CCCCCCN1CC(=O)N2[C@@H](c3ccc(Cl)c(Cl)c3)c3[nH]c4ccccc4c3C[C@H]2C1=O)NO`: the GI50 was 2.7 µM in the assay on MALME-3M melanoma; 1.11 µM in the assay on HL-60(TB) leukemia; 3.51 µM in the assay on TK-10 renal; 1.62 µM with OVCAR-3 ovarian; 0.689 µM in the assay with SR leukemia; 3.54 µM in the assay with SK-MEL-28 melanoma. Also, the GI50 was 3.21 µM in the assay on NCI-H522 lung, 4.73 µM with NCI-H23 lung, above 33.3 µM in the assay on NCI/ADR-RES ovarian and 3.9 µM with HCC-2998 colon. Moreover, the TGI came to 14.8 µM in the assay on MALME-3M melanoma; 4.32 µM with HL-60(TB) leukemia; 10.2 µM in the assay with TK-10 renal; 6.57 µM in the assay with OVCAR-3 ovarian; 3.1 µM in the assay on SR leukemia; 9.52 µM with SK-MEL-28 melanoma. The TGI with NCI-H522 lung was 10.5 µM; in the assay on NCI-H23 lung, 13.5 µM; in the assay on NCI/ADR-RES ovarian, above 33.3 µM; in the assay on HCC-2998 colon, 8.38 µM.
For `O=C(CC1(O)C(=O)N(Cc2ccccc2)c2ccccc21)c1ccc(C(=O)NCC2CCC3(CC2)OOC2(CCCCC2)OO3)cc1` (stereo not given), the GI50 with MALME-3M melanoma is 0.566 µM; in the assay with HL-60(TB) leukemia, 0.539 µM; with TK-10 renal, 0.835 µM; in the assay with OVCAR-3 ovarian it was 1.21 µM; in the assay with SR leukemia it was 0.344 µM; in the assay with SK-MEL-28 melanoma, 4.96 µM. The GI50 in the assay with NCI-H522 lung was 0.24 µM; in the assay with NCI-H23 lung it was 0.402 µM; in the assay on NCI/ADR-RES ovarian, 1.18 µM; in the assay on HCC-2998 colon, 2.3 µM. Moreover, the TGI in the assay on MALME-3M melanoma is 2 µM; in the assay on HL-60(TB) leukemia, 2.09 µM; with TK-10 renal it was 2.24 µM; in the assay with OVCAR-3 ovarian it was 2.74 µM; in the assay with SR leukemia, 1.66 µM; in the assay with SK-MEL-28 melanoma, 26.8 µM. Moreover, the TGI in the assay with NCI-H522 lung was 0.73 µM; in the assay on NCI-H23 lung, 1.28 µM; in the assay with NCI/ADR-RES ovarian, 3.47 µM; in the assay with HCC-2998 colon it was 5.06 µM.
`Cc1cccc2c3c(sc12)C(c1ccc(Cl)cc1)C(C#N)=C(N)O3` (stereo not given): the GI50 in the assay on MALME-3M melanoma is 0.653 µM; in the assay with HL-60(TB) leukemia it was 0.3 µM; in the assay with TK-10 renal, 5.92 µM; in the assay on OVCAR-3 ovarian it was 0.384 µM; in the assay with SR leukemia it was 0.452 µM; in the assay on SK-MEL-28 melanoma it was 3.69 µM. Moreover, the GI50 was 0.314 µM in the assay with NCI-H522 lung, 0.436 µM with NCI-H23 lung, 0.302 µM in the assay with NCI/ADR-RES ovarian and 0.67 µM in the assay on HCC-2998 colon. The TGI is 20 µM with MALME-3M melanoma; 1.21 µM in the assay with HL-60(TB) leukemia; 21.7 µM in the assay with TK-10 renal; 3.16 µM in the assay on OVCAR-3 ovarian; above 33.9 µM with SR leukemia; 20.7 µM in the assay with SK-MEL-28 melanoma. In addition, the TGI with NCI-H522 lung stood at 4.95 µM; with NCI-H23 lung, 10.4 µM; with NCI/ADR-RES ovarian it was 2.46 µM; with HCC-2998 colon it was 6.43 µM.
Consider `CCN(CC)CCCCCCNc1cc(OC)cc2cccnc12`, for which the GI50 is 2.03 µM in the assay with MALME-3M melanoma; 1.94 µM in the assay on HL-60(TB) leukemia; 16.1 µM in the assay with TK-10 renal; 1.74 µM in the assay with OVCAR-3 ovarian; 1.99 µM in the assay on SR leukemia; 2.09 µM in the assay with SK-MEL-28 melanoma. The GI50 is 2.17 µM with NCI-H522 lung, 13.3 µM in the assay with NCI-H23 lung, 7.16 µM in the assay on NCI/ADR-RES ovarian and 2.32 µM in the assay with HCC-2998 colon. Also, the TGI in the assay on MALME-3M melanoma worked out at 3.93 µM; in the assay with HL-60(TB) leukemia it was 4.03 µM; with TK-10 renal, 30.8 µM; in the assay on OVCAR-3 ovarian, 3.4 µM; with SR leukemia it was 4.1 µM; in the assay with SK-MEL-28 melanoma it was 4.53 µM. Also, the TGI was found to be 4.76 µM in the assay with NCI-H522 lung, 30.3 µM in the assay with NCI-H23 lung, 27.3 µM in the assay with NCI/ADR-RES ovarian and 5 µM in the assay on HCC-2998 colon.

The values above are taken from PubChem BioAssay (NCI).
